Data: patent publication US9073821B2, “Hydroxamic acid derivative” (priority 2010, dated 2015)
pIC50: −log10 of the molar value.

Target: Pseudomonas aeruginosa LpxC enzyme (Pseudomonas aeruginosa (strain ATCC 15692 / DSM 22644 / CIP 104116 / JCM 14847 / LMG 12228 / 1C / PRS 101 / PAO1), UniProt P47205)
Test: biochemical
Format: biochemical
Details: inhibitory activity on Pseudomonas aeruginosa LpxC enzyme, class symbols A/B/C; read-out: Enzyme inhibitory activity

| Structure (SMILES) | pIC50 |
| --- | --- |
| CNC(=O)C(C(=O)NO)N(C)C(=O)c1ccc(C#Cc2ccc(OCCN3CCOCC3)cc2)cc1 (centres unmarked) [Compound 382, N-hydroxy-N′-methyl-2-(methyl {[4-({4-[2-(morpholin-4-yl)ethoxy]phenyl}ethynyl)phenyl]carbonyl}amino)propanediamide] | > 8.00 |
| CNC(=O)C(C(=O)NO)N(C)C(=O)c1ccc(C#Cc2ccc(CN3CCC(OC)CC3)cc2)cc1 (centres unmarked) [Compound 383, N-hydroxy-2-[{[4-({4-[(4-methoxypiperidin-1-yl)methyl]phenyl}ethynyl)phenyl]carbonyl}(methyl)amino]-N′-methylpropanediamide] | > 8.00 |
| CNC(=O)C(C(=O)NO)N(C)C(=O)c1ccc(C#Cc2ccc3c(c2)CN(C2CC2)C3)cc1 (centres unmarked) [Compound 385, 2-[({4-[(2-cyclopropyl-2,3-dihydro-1H-isoindol-5-yl)ethynyl]phenyl}carbonyl)(methyl)amino]-N-hydroxy-N′-methylpropanediamide] | > 8.00 |
| CNC(=O)C(C(=O)NO)N(C)C(=O)c1ccc(-c2ccc(C#CCO)cc2)cc1 (centres unmarked) [Compound 389, N-hydroxy-2-[{[4′-(3-hydroxyprop-1-yn-1-yl)biphenyl-4-yl]carbonyl}(methyl)amino]-N′-methylpropanediamide] | > 8.00 |
| CNC(=O)C(C(=O)NO)N(C)C(=O)c1ccc(-c2ccc(C#CCN3CCOCC3)cc2)cc1 (centres unmarked) [Compound 390, N-hydroxy-N′-methyl-2-[methyl({4′-[3-(morpholin-4-yl)prop-1-yn-1-yl]biphenyl-4-yl}carbonyl)amino]propanediamide] | > 8.00 |
| CNC(=O)C(C(=O)NO)N(C)C(=O)c1ccc(C#Cc2ccc(C3(N)CC3)cc2)cc1 (centres unmarked) [Compound 394, 2-{[(4-{[4-(1-aminocyclopropyl)phenyl]ethynyl}phenyl)carbonyl](methyl)amino}-N-hydroxy-N′-methylpropanediamide] | 7.00 to 8.00 |
| CCCNc1ccc(C#Cc2ccc(C(=O)N(C)C(C(=O)NC)C(=O)NO)cc2)nc1 (centres unmarked) [Compound 407, N-hydroxy-N′-methyl-2-{methyl[(4-{[5-(propylamino)pyridin-2-yl]ethynyl}phenyl)carbonyl]amino}propanediamide] | 7.00 to 8.00 |
| CNC(=O)C(C(=O)NO)N(C)C(=O)c1ccc(C#Cc2ccn(C)n2)cc1 (centres unmarked) [Compound 418, N-hydroxy-N′-methyl-2-[methyl({4-[(1-methyl-1H-pyrazol-3-yl)ethynyl]phenyl}carbonyl)amino]propanediamide] | < 7.00 |
| CNC(=O)C(C(=O)NO)N(C)C(=O)c1ccc(C#Cc2ccc(C(F)(F)F)cc2)cc1 (centres unmarked) [Compound 420, N-hydroxy-N′-methyl-2-{methyl[(4-{[4-(trifluoromethyl)phenyl]ethynyl}phenyl)carbonyl]amino}propanediamide] | 7.00 to 8.00 |
| CNC(=O)[C@@](C)(C(=O)NO)N(C)C(=O)c1ccc(C#Cc2ccc(CS(C)(=O)=O)cc2)cc1 [Compound 422, (2S)-N-hydroxy-N′,2-dimethyl-2-(methyl {[4-({4-[(methylsulfonyl)methyl]phenyl}ethynyl)phenyl]carbonyl}amino)propanediamide] | > 8.00 |
| CNC(=O)C(C(=O)NO)N(C)C(=O)c1ccc(C#Cc2ccn(C)c2)cc1 (centres unmarked) [Compound 424, N-hydroxy-N′-methyl-2-[methyl({4-[(1-methyl-1H-pyrrol-3-yl)ethynyl]phenyl}carbonyl)amino]propanediamide] | 7.00 to 8.00 |
| CNC(=O)[C@@](C)(C(=O)NO)N(C)C(=O)c1ccc(C#Cc2cnn(C)c2)cc1 [Compound 433, (2S)-N-hydroxy-N′,2-dimethyl-2-[methyl({4-[(1-methyl-1H-pyrazol-4-yl)ethynyl]phenyl}carbonyl)amino]propanediamide] | > 8.00 |
| CNC(=O)C(C(=O)NO)N(C)C(=O)c1ccc(C#Cc2csc(COC)c2)cc1 (centres unmarked) [Compound 436, N-hydroxy-2-[(4-{[5-(methoxymethyl)thiophen-3-yl]ethynyl}benzoyl)(methyl)amino]-N′-methylpropanediamide] | 7.00 to 8.00 |
| CNC(=O)[C@@](C)(C(=O)NO)N(C)C(=O)c1ccc(-c2ccc(OCCN3CCOCC3)cc2)cc1 [Compound 437, (2S)-N-hydroxy-N′,2-dimethyl-2-[methyl({4′-[2-(morpholin-4-yl)ethoxy]biphenyl-4-yl}carbonyl)amino]propanediamide] | > 8.00 |
| CNC(=O)[C@@](C)(C(=O)NO)N(C)C(=O)c1ccc(C#Cc2ccc(CCN3CCCOCC3)cc2)cc1 [Compound 438, (2S)-N-hydroxy-N′,2-dimethyl-2-{methyl[4-({4-[2-(1,4-oxazepan-4-yl)ethyl]phenyl}ethynyl)benzoyl]amino}propanediamide] | > 8.00 |
| CNC(=O)C(C(=O)NO)N(C)C(=O)c1ccc(-c2ccccc2)s1 (centres unmarked) [Compound 442, N-hydroxy-N′-methyl-2-{methyl[(5-phenylthiophen-2-yl)carbonyl]amino}propanediamide] | < 7.00 |
| CNC(=O)C(C(=O)NO)N(C)C(=O)c1ccc(Oc2ccccc2)cc1 (centres unmarked) [Compound 443, N-hydroxy-N′-methyl-2-{methyl[(4-phenoxyphenyl)carbonyl]amino}propanediamide] | < 7.00 |
| CNC(=O)C(C(=O)NO)N(C)C(=O)c1ccc(OC2C=CCCC2)cc1 (centres unmarked) [Compound 444, 2-[{[4-(cyclohex-2-en-1-yloxy)phenyl]carbonyl}(methyl)amino]-N-hydroxy-N′-methylpropanediamide] | 7.00 to 8.00 |

| Structure (SMILES) | pIC50 |
| --- | --- |
| CNC(=O)C(C(=O)NO)N(C)C(=O)c1ccc(Cc2ccccc2)cc1 (centres unmarked) [Compound 445, 2-{[(4-benzylphenyl)carbonyl](methyl)amino}-N-hydroxy-N′-methylpropanediamide] | < 7.00 |
| CNC(=O)C(C(=O)NO)N(C)C(=O)c1ccc(-c2cncc(C(F)(F)F)c2)cc1 (centres unmarked) [Compound 446, N-hydroxy-N′-methyl-2-[methyl({4-[5-(trifluoromethyl)pyridin-3-yl]phenyl}carbonyl)amino]propanediamide] | < 7.00 |
| CNC(=O)C(C(=O)NO)N(C)C(=O)c1ccc(-c2cncc(OC)c2)cc1 (centres unmarked) [Compound 447, N-hydroxy-2-[{[4-(5-methoxypyridin-3-yl)phenyl]carbonyl}(methyl)amino]-N′-methylpropanediamide] | < 7.00 |
| CNC(=O)C(C(=O)NO)N(C)C(=O)c1ccc(-c2ccncc2F)cc1 (centres unmarked) [Compound 448, 2-[{[4-(3-fluoropyridin-4-yl)phenyl]carbonyl}(methyl)amino]-N-hydroxy-N′-methylpropanediamide] | 7.00 to 8.00 |
| CNC(=O)C(C(=O)NO)N(C)C(=O)c1ccc(-c2ccc(OC)nc2)cc1 (centres unmarked) [Compound 449, N-hydroxy-2-[{[4-(6-methoxypyridin-3-yl)phenyl]carbonyl}(methyl)amino]-N′-methylpropanediamide] | 7.00 to 8.00 |
| CNC(=O)C(C(=O)NO)N(C)C(=O)c1ccc(-c2ccc(C)nc2)cc1 (centres unmarked) [Compound 450, N-hydroxy-N′-methyl-2-(methyl {[4-(6-methylpyridin-3-yl)phenyl]carbonyl}amino)propanediamide] | < 7.00 |
| CNC(=O)C(C(=O)NO)N(C)C(=O)c1ccc(-c2ccnc(C)c2)cc1 (centres unmarked) [Compound 451, N-hydroxy-N′-methyl-2-(methyl {[4-(2-methylpyridin-4-yl)phenyl]carbonyl}amino)propanediamide] | 7.00 to 8.00 |
| CNC(=O)C(C(=O)NO)N(C)C(=O)c1ccc(-c2cc(C)ccn2)cc1 (centres unmarked) [Compound 452, N-hydroxy-N′-methyl-2-(methyl {[4-(4-methylpyridin-2-yl)phenyl]carbonyl}amino)propanediamide] | < 7.00 |
| CNC(=O)C(C(=O)NO)N(C)C(=O)c1ccc(OCC#Cc2ccccc2)cc1 (centres unmarked) [Compound 453, N-hydroxy-N′-methyl-2-[methyl({4-[(3-phenylprop-2-yn-1-yl)oxy]phenyl}carbonyl)amino]propanediamide] | 7.00 to 8.00 |
| CNC(=O)C(C(=O)NO)N(C)C(=O)c1ccc(OCc2ccccc2)cc1 (centres unmarked) [Compound 454, 2-[{[4-(benzyloxy)phenyl]carbonyl}(methyl)amino]-N-hydroxy-N′-methylpropanediamide] | 7.00 to 8.00 |
| CNC(=O)C(C(=O)NO)N(C)C(=O)c1ccc(C#Cc2ccccc2)cn1 (centres unmarked) [Compound 455, N-hydroxy-N′-methyl-2-(methyl {[5-(phenylethynyl)pyridin-2-yl]carbonyl}amino)propanediamide] | < 7.00 |
| CNC(=O)C(C(=O)NO)N(C)C(=O)c1cnc(-c2ccc(OC)cc2)c(F)c1 (centres unmarked) [Compound 457, 2-[{[5-fluoro-6-(4-methoxyphenyl)pyridin-3-yl]carbonyl}(methyl)amino]-N-hydroxy-N′-methylpropanediamide] | 7.00 to 8.00 |
| CNC(=O)C(C(=O)NO)N(C)C(=O)c1cnc(-c2ccc3c(c2)OCO3)c(F)c1 (centres unmarked) [Compound 458, 2-[{[6-(1,3-benzodioxol-5-yl)-5-fluoropyridin-3-yl]carbonyl}(methyl)amino]-N-hydroxy-N′-methylpropanediamide] | 7.00 to 8.00 |
| CNC(=O)C(C(=O)NO)N(C)C(=O)c1ccc(-c2ccc(C)cc2F)c(F)c1 (centres unmarked) [Compound 460, 2-{[(2,2′-difluoro-4′-methylbiphenyl-4-yl)carbonyl](methyl)amino}-N-hydroxy-N′-methylpropanediamide] | > 8.00 |
| CNC(=O)C(C(=O)NO)N(C)C(=O)c1ccc(C#Cc2ccoc2)cc1 (centres unmarked) [Compound 461, 2-[{[4-(furan-3-ylethynyl)phenyl]carbonyl}(methyl)amino]-N-hydroxy-N′-methylpropanediamide] | 7.00 to 8.00 |
| CNC(=O)C(C(=O)NO)N(C)C(=O)c1ccc(C#Cc2ccnc(C)c2)cc1 (centres unmarked) [Compound 464, N-hydroxy-N′-methyl-2-[methyl({4-[(2-methylpyridin-4-yl)ethynyl]phenyl}carbonyl)amino]propanediamide] | 7.00 to 8.00 |
| CNC(=O)C(C(=O)NO)N(C)C(=O)c1ccc(C#Cc2ccc(OCCCN3CCOCC3)cc2)cc1 (centres unmarked) [Compound 465, N-hydroxy-N′-methyl-2-(methyl {[4-({4-[3-(morpholin-4-yl)propoxy]phenyl}ethynyl)phenyl]carbonyl}amino)propanediamide] | > 8.00 |
